Test results published in ChEMBL document CHEMBL5291721, “A preclinical secondary pharmacology resource illuminates target-adverse drug reaction associations of marketed drugs” (Nat Commun, 2023).

Legend:
Histamine H1 receptor = Histamine H1 receptor (Homo sapiens, UniProt P35367)
Endothelin-1 receptor = target: T1, Endothelin-1 receptor (Homo sapiens, UniProt P25101)
T1 sequence (P25101 whole entry): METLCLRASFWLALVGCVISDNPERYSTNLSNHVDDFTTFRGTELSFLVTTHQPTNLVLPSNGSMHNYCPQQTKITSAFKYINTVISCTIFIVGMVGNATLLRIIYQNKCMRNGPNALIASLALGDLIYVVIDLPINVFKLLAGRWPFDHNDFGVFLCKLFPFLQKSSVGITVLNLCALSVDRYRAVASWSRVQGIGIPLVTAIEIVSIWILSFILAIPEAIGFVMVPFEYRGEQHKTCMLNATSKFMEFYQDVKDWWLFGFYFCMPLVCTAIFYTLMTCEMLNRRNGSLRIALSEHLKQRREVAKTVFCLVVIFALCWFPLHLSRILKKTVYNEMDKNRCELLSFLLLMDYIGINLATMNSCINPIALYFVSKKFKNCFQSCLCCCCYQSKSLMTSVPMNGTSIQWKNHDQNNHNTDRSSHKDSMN

Androgen receptor = target: T2, Androgen receptor (Rattus norvegicus, UniProt P15207); assay type: functional
T2 sequence (P15207 whole entry): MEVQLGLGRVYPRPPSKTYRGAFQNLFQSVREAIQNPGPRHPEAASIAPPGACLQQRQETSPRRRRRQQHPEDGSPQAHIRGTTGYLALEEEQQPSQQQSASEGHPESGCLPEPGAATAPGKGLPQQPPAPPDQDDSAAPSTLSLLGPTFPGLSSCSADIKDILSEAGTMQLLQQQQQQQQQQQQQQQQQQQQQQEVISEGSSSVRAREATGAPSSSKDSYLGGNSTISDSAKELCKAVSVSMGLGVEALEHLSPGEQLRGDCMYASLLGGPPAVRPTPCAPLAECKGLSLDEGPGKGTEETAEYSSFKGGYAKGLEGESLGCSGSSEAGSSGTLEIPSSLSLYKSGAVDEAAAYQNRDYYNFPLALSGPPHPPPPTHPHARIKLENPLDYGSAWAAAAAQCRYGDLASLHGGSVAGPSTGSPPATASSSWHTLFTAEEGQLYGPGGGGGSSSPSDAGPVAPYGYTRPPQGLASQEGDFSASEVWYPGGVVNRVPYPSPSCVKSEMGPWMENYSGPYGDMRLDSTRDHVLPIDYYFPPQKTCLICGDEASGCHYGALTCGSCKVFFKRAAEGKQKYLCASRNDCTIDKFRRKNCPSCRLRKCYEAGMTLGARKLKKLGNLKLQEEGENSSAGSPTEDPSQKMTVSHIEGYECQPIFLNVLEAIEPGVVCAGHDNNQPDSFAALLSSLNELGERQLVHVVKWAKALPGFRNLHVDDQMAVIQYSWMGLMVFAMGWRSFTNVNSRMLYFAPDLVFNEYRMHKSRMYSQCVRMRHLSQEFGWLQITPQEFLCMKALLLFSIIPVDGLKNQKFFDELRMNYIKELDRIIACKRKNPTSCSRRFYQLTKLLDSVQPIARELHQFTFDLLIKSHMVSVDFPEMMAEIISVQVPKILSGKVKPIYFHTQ

[1] = target: Gamma-aminobutyric acid receptor subunit alpha-1/alpha-2/beta-2/gamma-2 (Homo sapiens, UniProt P14867+P18507+P47869+P47870); assay type: functional, cell-based
B1 bradykinin receptor = target: T3, B1 bradykinin receptor (Homo sapiens, UniProt P46663)
T3 sequence (P46663 whole entry): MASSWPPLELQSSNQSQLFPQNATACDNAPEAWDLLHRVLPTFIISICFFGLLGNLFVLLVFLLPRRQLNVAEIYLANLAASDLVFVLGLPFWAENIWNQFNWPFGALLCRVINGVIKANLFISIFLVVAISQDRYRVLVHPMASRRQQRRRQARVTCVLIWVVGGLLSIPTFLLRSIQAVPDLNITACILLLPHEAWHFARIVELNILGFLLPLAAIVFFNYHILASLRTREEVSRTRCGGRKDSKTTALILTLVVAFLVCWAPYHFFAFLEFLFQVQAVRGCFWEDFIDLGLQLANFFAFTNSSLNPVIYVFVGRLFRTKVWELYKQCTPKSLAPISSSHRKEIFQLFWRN

[2] = target: 5-hydroxytryptamine receptor 2B (Homo sapiens, UniProt P41595)
[3] = target: Voltage-dependent N-type calcium channel subunit alpha-1B (Rattus norvegicus, UniProt Q02294); assay type: functional
D(4) dopamine receptor = target: T4, D(4) dopamine receptor (Homo sapiens, UniProt P21917)
T4 sequence (P21917 whole entry): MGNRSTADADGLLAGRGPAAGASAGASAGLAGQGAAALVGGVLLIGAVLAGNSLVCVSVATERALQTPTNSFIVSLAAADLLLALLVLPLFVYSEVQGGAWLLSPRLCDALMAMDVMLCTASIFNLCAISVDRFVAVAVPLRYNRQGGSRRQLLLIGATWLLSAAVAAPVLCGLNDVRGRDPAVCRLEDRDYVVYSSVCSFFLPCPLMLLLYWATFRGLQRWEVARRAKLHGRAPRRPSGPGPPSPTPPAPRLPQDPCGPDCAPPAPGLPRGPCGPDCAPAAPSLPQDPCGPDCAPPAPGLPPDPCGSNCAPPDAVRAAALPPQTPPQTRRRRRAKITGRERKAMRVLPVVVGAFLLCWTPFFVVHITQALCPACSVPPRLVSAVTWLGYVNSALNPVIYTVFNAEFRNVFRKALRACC

[4] = target: T5, Muscarinic acetylcholine receptor M2 (Homo sapiens, UniProt P08172)
T5 sequence (P08172 whole entry): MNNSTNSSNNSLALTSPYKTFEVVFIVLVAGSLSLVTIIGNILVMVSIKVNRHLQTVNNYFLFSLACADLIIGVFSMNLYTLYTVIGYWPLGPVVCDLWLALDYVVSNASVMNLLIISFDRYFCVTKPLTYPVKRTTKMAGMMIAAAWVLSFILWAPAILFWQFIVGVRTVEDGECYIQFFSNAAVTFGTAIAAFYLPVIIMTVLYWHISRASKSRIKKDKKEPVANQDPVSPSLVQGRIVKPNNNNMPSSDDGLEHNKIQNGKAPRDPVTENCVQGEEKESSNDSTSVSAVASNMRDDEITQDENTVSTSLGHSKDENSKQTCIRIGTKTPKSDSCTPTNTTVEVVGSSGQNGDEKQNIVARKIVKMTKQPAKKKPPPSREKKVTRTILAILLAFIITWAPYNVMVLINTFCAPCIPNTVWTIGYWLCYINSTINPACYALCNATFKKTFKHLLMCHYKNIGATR

D(1A) dopamine receptor = D(1A) dopamine receptor (Homo sapiens, UniProt P21728)
Glucagon receptor = Glucagon receptor (Homo sapiens, UniProt P47871)
Also: assay procedure not described here.

Chain of 5-hydroxytryptamine receptor 2B (P41595 whole entry): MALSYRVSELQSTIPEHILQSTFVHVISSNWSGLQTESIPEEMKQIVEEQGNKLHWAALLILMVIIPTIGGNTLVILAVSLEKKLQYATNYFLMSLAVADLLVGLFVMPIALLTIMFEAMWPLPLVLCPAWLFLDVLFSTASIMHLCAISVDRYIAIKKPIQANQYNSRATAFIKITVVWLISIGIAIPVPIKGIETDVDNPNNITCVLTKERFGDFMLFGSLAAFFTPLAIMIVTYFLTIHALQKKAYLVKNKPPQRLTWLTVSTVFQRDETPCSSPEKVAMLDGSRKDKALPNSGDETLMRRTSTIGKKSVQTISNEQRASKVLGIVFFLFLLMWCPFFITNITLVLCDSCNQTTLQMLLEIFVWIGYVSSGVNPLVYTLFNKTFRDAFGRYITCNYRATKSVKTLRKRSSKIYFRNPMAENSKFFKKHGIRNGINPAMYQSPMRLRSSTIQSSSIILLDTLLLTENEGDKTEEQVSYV
Chain of D(1A) dopamine receptor (P21728 whole entry): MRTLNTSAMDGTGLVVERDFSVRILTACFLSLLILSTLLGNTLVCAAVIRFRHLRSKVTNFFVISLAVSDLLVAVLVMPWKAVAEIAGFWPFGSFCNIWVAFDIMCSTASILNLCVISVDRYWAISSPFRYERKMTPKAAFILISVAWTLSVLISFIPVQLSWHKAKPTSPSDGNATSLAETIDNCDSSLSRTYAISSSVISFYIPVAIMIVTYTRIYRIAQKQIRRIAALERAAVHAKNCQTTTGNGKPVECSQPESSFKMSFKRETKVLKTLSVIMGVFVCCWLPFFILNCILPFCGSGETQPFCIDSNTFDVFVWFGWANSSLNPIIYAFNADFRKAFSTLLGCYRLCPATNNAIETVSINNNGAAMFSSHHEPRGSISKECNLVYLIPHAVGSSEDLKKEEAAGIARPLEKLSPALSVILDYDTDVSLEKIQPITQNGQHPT
Chain of Gamma-aminobutyric acid receptor subunit alpha-1/alpha-2/beta-2/gamma-2 (P14867 whole entry): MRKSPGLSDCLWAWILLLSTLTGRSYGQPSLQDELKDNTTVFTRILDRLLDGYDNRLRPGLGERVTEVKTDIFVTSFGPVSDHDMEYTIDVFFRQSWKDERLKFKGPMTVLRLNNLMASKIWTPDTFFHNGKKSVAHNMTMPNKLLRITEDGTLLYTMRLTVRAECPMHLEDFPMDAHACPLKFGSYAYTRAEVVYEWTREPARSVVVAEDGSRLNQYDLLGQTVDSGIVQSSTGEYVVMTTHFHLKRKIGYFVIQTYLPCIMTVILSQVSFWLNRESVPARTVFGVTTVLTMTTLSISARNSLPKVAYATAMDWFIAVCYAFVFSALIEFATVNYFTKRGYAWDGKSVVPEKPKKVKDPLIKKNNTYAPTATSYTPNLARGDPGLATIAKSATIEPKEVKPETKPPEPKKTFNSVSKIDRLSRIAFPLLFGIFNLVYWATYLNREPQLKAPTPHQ
Chain of Gamma-aminobutyric acid receptor subunit alpha-1/alpha-2/beta-2/gamma-2 (P47870 whole entry): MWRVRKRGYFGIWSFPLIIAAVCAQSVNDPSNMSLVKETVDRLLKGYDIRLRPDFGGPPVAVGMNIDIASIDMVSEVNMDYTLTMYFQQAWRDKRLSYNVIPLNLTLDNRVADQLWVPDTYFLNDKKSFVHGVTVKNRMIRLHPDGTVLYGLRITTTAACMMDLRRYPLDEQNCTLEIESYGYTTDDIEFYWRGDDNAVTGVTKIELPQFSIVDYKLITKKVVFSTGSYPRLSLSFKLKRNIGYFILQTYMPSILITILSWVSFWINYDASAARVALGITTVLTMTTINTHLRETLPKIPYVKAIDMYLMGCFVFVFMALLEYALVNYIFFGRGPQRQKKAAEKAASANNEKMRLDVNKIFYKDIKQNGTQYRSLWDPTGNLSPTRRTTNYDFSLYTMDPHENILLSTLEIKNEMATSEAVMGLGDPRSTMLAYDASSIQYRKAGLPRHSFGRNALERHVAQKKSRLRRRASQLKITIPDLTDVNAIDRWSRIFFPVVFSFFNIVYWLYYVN
Chain of Gamma-aminobutyric acid receptor subunit alpha-1/alpha-2/beta-2/gamma-2 (P18507 whole entry): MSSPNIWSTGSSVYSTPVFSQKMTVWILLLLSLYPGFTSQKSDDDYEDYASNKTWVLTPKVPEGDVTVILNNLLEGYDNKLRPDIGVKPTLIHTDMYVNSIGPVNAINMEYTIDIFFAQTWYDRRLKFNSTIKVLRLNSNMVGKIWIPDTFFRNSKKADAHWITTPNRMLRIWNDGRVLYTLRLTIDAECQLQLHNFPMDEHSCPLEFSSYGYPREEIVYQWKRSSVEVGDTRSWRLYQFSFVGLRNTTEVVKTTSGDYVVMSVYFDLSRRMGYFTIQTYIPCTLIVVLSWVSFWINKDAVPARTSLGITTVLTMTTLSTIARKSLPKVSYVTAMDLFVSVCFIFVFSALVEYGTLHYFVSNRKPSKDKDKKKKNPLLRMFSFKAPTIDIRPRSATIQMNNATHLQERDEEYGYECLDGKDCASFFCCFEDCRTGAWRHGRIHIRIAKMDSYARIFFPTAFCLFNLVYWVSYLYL
Chain of Gamma-aminobutyric acid receptor subunit alpha-1/alpha-2/beta-2/gamma-2 (P47869 whole entry): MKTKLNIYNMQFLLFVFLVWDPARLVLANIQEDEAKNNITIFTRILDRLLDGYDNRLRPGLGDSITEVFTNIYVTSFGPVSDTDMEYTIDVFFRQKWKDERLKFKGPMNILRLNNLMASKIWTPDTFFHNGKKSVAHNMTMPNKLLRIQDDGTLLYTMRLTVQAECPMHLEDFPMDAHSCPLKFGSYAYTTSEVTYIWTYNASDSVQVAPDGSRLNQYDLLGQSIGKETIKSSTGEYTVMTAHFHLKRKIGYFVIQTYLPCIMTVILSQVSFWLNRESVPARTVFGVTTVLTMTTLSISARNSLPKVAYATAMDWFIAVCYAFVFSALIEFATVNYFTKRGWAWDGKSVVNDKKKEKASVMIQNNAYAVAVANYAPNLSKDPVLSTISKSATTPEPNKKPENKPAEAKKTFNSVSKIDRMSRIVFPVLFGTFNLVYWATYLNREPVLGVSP
Chain of Glucagon receptor (P47871 whole entry): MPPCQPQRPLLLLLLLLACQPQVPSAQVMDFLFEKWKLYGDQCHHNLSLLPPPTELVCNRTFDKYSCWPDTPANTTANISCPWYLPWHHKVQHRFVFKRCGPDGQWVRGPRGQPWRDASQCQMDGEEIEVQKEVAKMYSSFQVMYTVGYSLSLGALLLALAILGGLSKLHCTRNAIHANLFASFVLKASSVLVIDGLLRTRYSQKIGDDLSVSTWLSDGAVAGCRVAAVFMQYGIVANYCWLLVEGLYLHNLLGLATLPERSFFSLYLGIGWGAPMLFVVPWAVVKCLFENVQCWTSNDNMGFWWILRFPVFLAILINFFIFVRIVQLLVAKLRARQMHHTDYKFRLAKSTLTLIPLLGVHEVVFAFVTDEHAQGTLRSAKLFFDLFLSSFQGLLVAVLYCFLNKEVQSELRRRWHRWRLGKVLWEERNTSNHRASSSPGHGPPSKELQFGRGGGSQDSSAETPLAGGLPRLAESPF
Chain of Histamine H1 receptor (P35367 whole entry): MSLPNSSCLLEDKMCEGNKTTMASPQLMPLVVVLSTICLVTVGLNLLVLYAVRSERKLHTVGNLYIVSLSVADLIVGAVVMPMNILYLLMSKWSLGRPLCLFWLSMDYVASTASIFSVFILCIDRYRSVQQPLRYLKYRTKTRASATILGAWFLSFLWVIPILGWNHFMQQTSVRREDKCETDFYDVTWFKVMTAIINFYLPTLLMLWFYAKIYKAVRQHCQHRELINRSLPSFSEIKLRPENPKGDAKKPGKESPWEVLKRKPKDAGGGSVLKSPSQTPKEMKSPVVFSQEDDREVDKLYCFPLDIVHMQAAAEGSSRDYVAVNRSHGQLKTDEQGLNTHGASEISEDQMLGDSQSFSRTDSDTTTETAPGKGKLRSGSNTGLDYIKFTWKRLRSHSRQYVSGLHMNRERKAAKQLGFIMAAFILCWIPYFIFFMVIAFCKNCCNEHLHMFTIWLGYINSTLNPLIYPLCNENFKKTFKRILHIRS

Structure (SMILES): C[N+]1(C)CCC(=C(c2ccccc2)c2ccccc2)CC1
- AC50 (Histamine H1 receptor): 2.9 µM

Structure (SMILES): C[N+](C)(C)CCOP(=O)([O-])OC[C@H](O)CO
- AC50 (Endothelin-1 receptor): > 30 µM
- AC50 (Androgen receptor): > 30 µM

Structure (SMILES): CN(C)Cc1nnc2n1-c1ccc(Cl)cc1C(c1ccccc1)=NC2 [ADINAZOLAM]
- AC50 (Histamine H1 receptor): > 10 µM

Structure (SMILES): CN(C)C/C=C/C(=O)Nc1cc2c(Nc3ccc(F)c(Cl)c3)ncnc2cc1O[C@H]1CCOC1 [AFATINIB]
- AC50 (Endothelin-1 receptor): > 30 µM
- AC50 (Androgen receptor): > 30 µM
- AC50 (Histamine H1 receptor): > 30 µM
- AC50 [1]: > 30 µM

Structure (SMILES): Cc1ccccc1-n1c(CF)nc2ccc(N)cc2c1=O [AFLOQUALONE]
- AC50 (Histamine H1 receptor): > 10 µM

Structure (SMILES): CCC1(c2ccc(N)cc2)CCC(=O)NC1=O (stereo not given) [AMINOGLUTETHIMIDE]
- AC50 (Endothelin-1 receptor): > 30 µM
- AC50 (Androgen receptor): > 30 µM
- AC50 [1]: > 30 µM

Structure (SMILES): CC1=C(C(=O)OC(C)C)C(c2cccc([N+](=O)[O-])c2)C(C(=O)OC2CN(C(c3ccccc3)c3ccccc3)C2)=C(N)N1 (stereo not given) [AZELNIDIPINE]
- AC50 (Endothelin-1 receptor): > 30 µM
- AC50 (Histamine H1 receptor): > 30 µM

Structure (SMILES): O=C(/C=C/c1cccc(S(=O)(=O)Nc2ccccc2)c1)NO [BELINOSTAT]
- AC50 (Endothelin-1 receptor): > 10 µM
- AC50 (B1 bradykinin receptor): > 10 µM
- AC50 [2]: > 10 µM
- AC50 (Histamine H1 receptor): > 10 µM
- AC50 [3]: > 10 µM
- AC50 (D(4) dopamine receptor): > 10 µM
- AC50 [4]: > 10 µM
- AC50 (D(1A) dopamine receptor): > 10 µM
- AC50 (Glucagon receptor): > 10 µM

Structure (SMILES): CC(Cc1cccc(C(F)(F)F)c1)NCCOC(=O)c1ccccc1 (stereo not given) [BENFLUOREX]
- AC50 (Endothelin-1 receptor): > 30 µM
- AC50 (Histamine H1 receptor): 13.5 µM

Structure (SMILES): CC(O)(CS(=O)(=O)c1ccc(F)cc1)C(=O)Nc1ccc(C#N)c(C(F)(F)F)c1 (stereo not given) [BICALUTAMIDE]
- AC50 (Endothelin-1 receptor): > 30 µM
- AC50 (B1 bradykinin receptor): > 30 µM
- AC50 [2]: > 10 µM
- AC50 [3]: > 10 µM
- AC50 (D(4) dopamine receptor): > 10 µM
- AC50 [4]: > 10 µM
- AC50 (D(1A) dopamine receptor): > 10 µM
- AC50 (Glucagon receptor): > 30 µM

Structure (SMILES): O=C(O)COCCN1CCN(C(c2ccccc2)c2ccc(Cl)cc2)CC1 (stereo not given) [CETIRIZINE]
- AC50 (Endothelin-1 receptor): > 30 µM
- AC50 (B1 bradykinin receptor): > 30 µM
- AC50 [3]: > 10 µM
- AC50 (D(4) dopamine receptor): > 10 µM
- AC50 (Glucagon receptor): > 30 µM

Structure (SMILES): NC[C@H]1CC[C@H](C(=O)Oc2ccc(CCC(=O)O)cc2)CC1 [CETRAXATE]
- AC50 [1]: > 30 µM

Structure (SMILES): CC(=O)O[C@]1(C(C)=O)CC[C@H]2[C@@H]3C=C(Cl)C4=CC(=O)[C@@H]5C[C@@H]5[C@]4(C)[C@H]3CC[C@@]21C [CYPROTERONE ACETATE]
- AC50 [2]: > 10 µM
- AC50 [3]: > 10 µM
- AC50 [4]: > 10 µM
- AC50 (D(1A) dopamine receptor): > 10 µM

Structure (SMILES): C/C=C(/C(=C/C)c1ccc(O)cc1)c1ccc(O)cc1 [DIENESTROL]
- AC50 (Histamine H1 receptor): > 10 µM

Structure (SMILES): CN[C@]1(c2ccccc2Cl)CCCCC1=O [ESKETAMINE]
- AC50 (Endothelin-1 receptor): > 30 µM
